Experimental data taken from paper PMC11345829, “Discovery of Potent Isoquinolinequinone N-Oxides to Overcome Cancer Multidrug Resistance” (Journal of Medicinal Chemistry, 2024).

Columns and labels:
NCI-ADR/RES = test system: NCI-ADR/RES; design: method as in PMID 31894828; conditions: MDR cell line, high P-gp; read-out: growth inhibition (GI50) NCI/ADR-RES; cited from earlier work
NCI-H460 cells [1] = assay: Cell cycle profile, PI staining flow cytometry; format: cell-based, human; conditions: 48 h; for cell cycle profile: 25 at 0.35 and 0.7 μM, doxorubicin 50 nM
Protocol: The effect of 25 on the cell cycle profile of NCI-H460 cells was assessed.
Figure 8 Effect of compound 25 on the cell cycle profile of NCI-H460 cells, analyzed by flow cytometry (PI staining). […] (A) Frequency (%) of cell cycle phases for each condition. (B) Representative cell cycle histograms. Results are the mean ± SEM from at least 3 independent experiments. * p ≤ 0.05, when comparing DMSO vs compound treatment.
Collected cells were then fixed in ice-cold 70% ethanol (Fisher Scientific) overnight. Cells were then centrifuged again and resuspended in 5 μg/mL of PI (Merck Life Science) and 0.1 mg/mL RNase A (Invitrogen) in PBS, and kept in the dark for at least 30 min. Cellular DNA content was analyzed using the BD Accuri C6 Flow cytometer. At least 10 000 events per sample were acquired. FlowJo 7.6.5 software (Tree Star, Inc., Ashland, Oregon, USA) was used to determine the % of cells in the different phases of the cell cycle.

NCI-H460 spheroids = assay: Cell Titer-Glo 3D spheroid viability assay; format: cell-based, human; conditions: 48 h; 25 at 0.35 and 0.7 μM; doxorubicin 50 nM
Excerpt: Figure 12 Effect of compound 25 on the viability of spheroids established from two counterpart pairs of sensitive and MDR cell lines, from NSCLC (NCI-H460 and NCI-H460/R) and colorectal cancer (DLD1 and DLD1-TxR), using MicroTissue 3D Petri dishes. […] (B) Effect of compound 25 on the viability of NCI-H460 spheroids analyzed by Cell Titer-Glo 3D viability assay. (C) Effect of compound 25 on the viability of NCI-H460/R spheroids analyzed with the Cell Titer-Glo 3D viability assay. Results are presented as the % of luciferase luminescence relative to the “blank” cells (medium). […] (E) Effect of compound 25 on the viability of DLD1 spheroids analyzed by Cell Titer-Glo 3D viability assay. (F) Effect of compound 25 on the viability of DLD1-TxR spheroids analyzed with the Cell Titer-Glo 3D viability assay. Data are expressed as mean ± SEM from 3 independent experiments. * p ≤ 0.05 and ** p ≤ 0.01, when comparing DMSO vs compound treatment.
Spheroid formation was conducted in 12-series agarose 3D Petri Dish micromolds (MicroTissues Technology, MicroTissues Inc., Sigma-Aldrich). The agarose micromolds were prepared using 1% agarose in a 0.9% NaCl solution and then placed in 12-well plates and equilibrated with RPMI supplemented with 10% FBS for at least 2 h before cell seeding. Cell suspensions corresponding to 500 cells per spheroid of the NSCLC cell lines (NCI-H460 and NCI-H460/R), and 1000 cells per spheroid of the colorectal cancer cell lines (DLD1 and DLD1-TxR) were seeded in the corresponding micromolds. The choice of cell seeding concentration was based on a previous optimization assay (data not shown), ensuring that at the end of the assay the spheroids would have a size of around 400 μm. A 20 min incubation period was used for cells to settle into the micromolds and additional medium was finally added to the wells. Spheroid formation was monitored with the Leica DMi1 microscope. […] At the end of the treatment, images from at least 8 different spheroids per condition were captured on the Leica Dmi1 microscope, and posteriorly analyzed with the automated open-source software AnaSP.[82] Spheroid parameters, such as equivalent diameter, circularity, and compactness, were calculated.
Spheroid viability was determined through the luminescence-based Cell Titer-Glo 3D cell viability assay (Promega). Spheroids grown on MicroTissues 3D Petri Dish micromolds were exposed to the treatments, as described in the previous section. Then, the spheroids were transferred into 96-well plates in 50 μL of RPMI medium. […] The plate was then incubated in the dark for 5 min with agitation and allowed to rest for 25 min before luminescence measurement. Luminescence was quantified using the microplate reader Synergy MX coupled with the GEN5 software. […]

NCI-H460 cells [2] = assay: BrdU incorporation assay (cell proliferation); format: cell-based, human; conditions: 48 h; 25 at 0.35 and 0.7 μM; doxorubicin 50 nM
Protocol: To assess the impact of compound 25 on cell proliferation, the bromodeoxyuridine (BrdU) incorporation assay was performed.
Figure 7 Effect of compound 25 on the % of proliferating NCI-H460 cells, determined with the BrdU assay. […] (A) Percentage of BrdU-incorporating cells under different treatments. Results are the mean ± SEM from at least 3 independent experiments. * p ≤ 0.05, ** p ≤ 0.01, when comparing DMSO vs compound treatment.
At 4 h before the end of this treatment, cells were incubated with 1 μM of BrdU (Merck Life Science). After collection of cells, they were fixed with paraformaldehyde 4% (Merck Life Science) for 40 min at room temperature (RT). Then, cells were subjected to a cytospin (500 rpm for 5 min), and cellular DNA was denaturated using 2 M of HCl (Merck Life Science) for 20 min. Cells were incubated with a PBS solution containing 0.5% Tween (Promega, Madison, Wisconsin, USA) and 0.05% bovine serum albumin (BSA; Merck Life Science). The cells were further incubated with a primary monoclonal mouse anti-BrdU Clone Bu20a antibody (1:10; Dako, Glostrup, Denmark) for 1 h, followed by incubation with a polyclonal rabbit antimouse immunoglobulins/FITC secondary antibody (1:100; Dako) for 30 min at RT. […] The cells were counted using the ImageJ 2.1.0 software.

NCI-H460 cells [3] = assay: Annexin V-FITC/PI cell death assay; format: cell-based, human; conditions: 48 h; 0.35 and 0.7 μM
Protocol: The effect of compound 25 on the levels of apoptosis and necrosis was evaluated using annexin V-FITC/PI labeling followed by flow cytometry analysis.
Figure 9 Effect of compound 25 on the levels of death of NCI-H460 cells, analyzed by flow cytometry (annexin V−PI assay). […] Results are the mean ± SEM from at least 3 independent experiments. * p ≤ 0.05, when comparing DMSO vs compound treatment.
Analysis of cell death was performed using the Annexin V-FITC apoptosis detection kit (eBioscience, Thermo Fisher Scientific). […] Exposure to 5% ethanol for 1 h was used as a positive control for necrosis. Collected cells were resuspended in the binding buffer solution and incubated with the Annexin V-FITC conjugate for 10 min at RT, in the dark. Afterward, PI was added, and samples were analyzed using the BD Accuri C6 flow cytometer, where at least 10 000 events per sample were plotted. Data analysis was carried out using the BD Accuri C6 Software.

| Compound | GI50 (NCI-ADR/RES) [nM] | cells in sub-G1 phase (NCI-H460 cells [1]; 0.35 and 0.7 μM) | cell cycle profile (NCI-H460 cells [1]) | viability of NCI-H460 spheroids (NCI-H460 spheroids) | percentage of proliferating (BrdU-incorporating) cells (NCI-H460 cells [2]) | percentage of dead cells (apoptosis/necrosis) (NCI-H460 cells [3]) |
| --- | --- | --- | --- | --- | --- | --- |
| COC(=O)c1c2c(c(C)[n+]([O-])c1C)C(=O)C=C(NCc1ccccc1)C2=O [Compound 2] | 535 | – | – | – | – | – |
| COC(=O)c1c2c(c[n+]([O-])c1C)C(=O)C=C(NCc1ccccc1)C2=O [Compound 25] | – | slight increase in the percentage of cells in the sub-G1 phase, although not statistically significant | increase in the G1 phase and decrease in the S phase | significant decrease in the viability of the spheroids | significantly reduced the percentage of NCI-H460 proliferating cells | did not cause an increase in the percentage of dead cells |
| COc1cccc2c1C(=O)c1c(O)c3c(c(O)c1C2=O)C[C@@](O)(C(=O)CO)C[C@@H]3O[C@H]1C[C@H](N)[C@H](O)[C@H](C)O1 [doxorubicin, reference compound] | – | – | major alterations in the cell cycle profile | did not significantly affect the viability of the spheroids | significantly reduced the percentage of NCI-H460 proliferating cells | – |
